The values that follow come from patent US20110021570A1, “PYRIDONE GLUCOKINASE ACTIVATORS” (priority 2009, published 2011).

Each structure is given as a SMILES string.

The target of this assay is T1, Recombinant human liver GK1 (GST-GK) (Homo sapiens, UniProt P35557).
T1 construct: made in house; host or cells: E. coli
T1 sequence (P35557 1-466 isoform P35557-2): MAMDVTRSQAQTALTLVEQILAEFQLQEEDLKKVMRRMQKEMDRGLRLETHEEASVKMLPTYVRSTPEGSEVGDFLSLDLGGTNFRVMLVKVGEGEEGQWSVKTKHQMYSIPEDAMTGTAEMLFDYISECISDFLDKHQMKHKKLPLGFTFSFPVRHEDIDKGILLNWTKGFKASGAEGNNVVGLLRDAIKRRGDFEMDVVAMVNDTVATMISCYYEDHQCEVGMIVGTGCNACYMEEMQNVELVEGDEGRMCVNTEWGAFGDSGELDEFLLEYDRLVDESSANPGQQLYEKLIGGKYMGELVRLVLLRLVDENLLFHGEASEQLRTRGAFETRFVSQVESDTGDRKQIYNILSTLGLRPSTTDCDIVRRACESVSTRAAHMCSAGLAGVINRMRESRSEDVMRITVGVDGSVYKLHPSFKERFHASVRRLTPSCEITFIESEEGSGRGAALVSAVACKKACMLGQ
The assay can be described thus: Glucokinase in vitro assay (G6PDH-coupled, NADH generation). The assay is classed as biochemical. The note with it: concentration of activator that produced a 50% increase in the activity of GK; 5 mM D-glucose, 30° C., pH 7.1. How it is done: Glucokinase In Vitro Assay Protocol: Glucokinase (GK) was assayed by coupling the production of glucose-6-phosphate to the generation of NADH with glucose-6-phosphate dehydrogenase (G6PDH, 0.75-1 kunits/mg; Boehringer Mannheim, Indianapolis, Ind.) from Leuconostoc mesenteroides as the coupling enzyme:
Recombinant human liver GK1 was expressed in E. coli as a glutathione S-transferase fusion protein (GST-GK) [Liang et al, 1995] and was purified by chromatography over a glutathione-Sepharose 4B affinity column using the procedure provided by the manufacturer (Amersham Pharmacia Biotech, Piscataway, N.J.).
The assay was conducted at 30° C. in a flat bottom 96-well tissue culture plate from Costar (Cambridge, Mass.) with a final incubation volume of 120 μL. The incubation reaction contained the following: 25 mM Hepes buffer (pH 7.1), 25 mM KCl, 5 mM D-glucose, 1 mM ATP, 1.8 mM NAD, 2 mM MgCl2, 1 μM sorbitol-6-phosphate, 1 mM dithiothreitol, test drug or 10% DMSO, ˜7 units/ml G6PDH, and GK (see below). All organic reagents were >98% pure and were from Boehringer Mannheim with the exceptions of D-glucose and Hepes which were from Sigma Chemical Co, St Louis, Mo. Test compounds were dissolved in DMSO and were added to the incubation reaction minus GST-GK in a volume of 12 μL to yield a final DMSO concentration of 10%. This mix was pre-incubated in the temperature controlled chamber of a SPECTRAmax 250 microplate spectrophotometer (Molecular Devices Corporation, Sunnyvale, Calif.) for 10 minutes to allow temperature equilibrium and then the reaction was started by the addition of […].
After addition of enzyme, the increase in optical density (OD) at 340 nm was monitored spectrophotometrically to determine the rate of change (OD340 per min). The GK activity (0D340/min) in control wells (10% DMSO minus GK activators) was compared with the activity in wells containing test GK activators, and the concentration of activator that produced a 50% increase in the activity of GK, i.e., the SC1.5, was calculated. The table below provides the in vitro glucokinase activity for the compounds in the Examples: […]
For `CC(C)CC(C(=O)Nc1ccn(C)n1)n1ccc(Oc2cccc(F)c2F)cc1=O` (stereo not drawn) [Example 1, 2-[4-(2,3-Difluoro-phenoxy)-2-oxo-2H-pyridin-1-yl]-4-methyl-pentanoic acid (1-methyl-1H-pyrazol-3-yl)-amide], the SC1.5 average worked out at 10.4 µM.
The value for `CC(C)CC(C(=O)Nc1ccn(C)n1)n1ccc(Oc2cccc(F)c2)cc1=O` (stereo not drawn) [Example 2, 2-[4-(3-Fluoro-phenoxy)-2-oxo-2H-pyridin-1-yl]-4-methyl-pentanoic acid (1-methyl-1H-pyrazol-3-yl)-amide] was over 30 µM; that for `CC(C)CC(C(=O)Nc1ccn(C)n1)n1ccc(Oc2ccccc2)cc1=O` (stereo not drawn) [Example 3, 4-Methyl-2-(2-oxo-4-phenoxy-2H-pyridin-1-yl)-pentanoic acid (1-methyl-1H-pyrazol-3-yl)-amide] was 21.7 µM; that for `Cc1ccccc1Oc1ccn(C(CC(C)C)C(=O)Nc2ccn(C)n2)c(=O)c1` (stereo not drawn) [Example 4, 4-Methyl-2-(2-oxo-4-o-tolyloxy-2H-pyridin-1-yl)-pentanoic acid (1-methyl-1H-pyrazol-3-yl)-amide] was 7.3 µM.
The value for `CC(C)CC(C(=O)Nc1ccn(C)n1)n1ccc(Oc2c(F)cccc2F)cc1=O` (stereo not drawn) [Example 5, 2-[4-(2,6-Difluoro-phenoxy)-2-oxo-2H-pyridin-1-yl]-4-methyl-pentanoic acid (1-methyl-1H-pyrazol-3-yl)-amide] was 4.2 µM.
As for `CC(C)CC(C(=O)Nc1ccn(C)n1)n1ccc(Oc2ccccc2C(F)(F)F)cc1=O` (stereo not drawn) [Example 6, 4-Methyl-2-[2-oxo-4-(2-trifluoromethyl-phenoxy)-2H-pyridin-1-yl]-pentanoic acid (1-methyl-1H-pyrazol-3-yl)-amide], the SC1.5 average amounted to 11.4 µM.
Consider `CC(C)CC(C(=O)Nc1ccn(C)n1)n1ccc(Oc2ccc(F)cc2)cc1=O` (stereo not drawn) [Example 7, 2-[4-(4-Fluoro-phenoxy)-2-oxo-2H-pyridin-1-yl]-4-methyl-pentanoic acid (1-methyl-1H-pyrazol-3-yl)-amide], for which the SC1.5 average is over 30 µM.
For `CC(C)CC(C(=O)Nc1ccn(C)n1)n1ccc(Oc2cccnc2)cc1=O` (stereo not drawn) [Example 8, 4-Methyl-2-[2-oxo-4-(pyridin-3-yloxy)-2H-pyridin-1-yl]-pentanoic acid (1-methyl-1H-pyrazol-3-yl)-amide], the SC1.5 average came to 26.1 µM.
On to `CC(C)CC(C(=O)Nc1ccn(C)n1)n1ccc(Oc2ccccc2-c2ccccc2)cc1=O` (stereo not drawn) [Example 9, 2-[4-(Biphenyl-2-yloxy)-2-oxo-2H-pyridin-1-yl]-4-methyl-pentanoic acid (1-methyl-1H-pyrazol-3-yl)-amide], for which the SC1.5 average was over 30 µM.
The value for `CC(C)CC(C(=O)Nc1ccn(C)n1)n1ccc(Oc2ccccc2C(C)C)cc1=O` (stereo not drawn) [Example 10, 2-[4-(2-Isopropyl-phenoxy)-2-oxo-2H-pyridin-1-yl]-4-methyl-pentanoic acid (1-methyl-1H-pyrazol-3-yl)-amide] was 4.5 µM; that for `CC(C)CC(C(=O)Nc1ccn(C)n1)n1ccc(Oc2ccc(F)cc2F)cc1=O` (stereo not drawn) [Example 11, 2-[4-(2,4-Difluoro-phenoxy)-2-oxo-2H-pyridin-1-yl]-4-methyl-pentanoic acid (1-methyl-1H-pyrazol-3-yl)-amide] was 22.5 µM; that for `Cc1c(Cl)cccc1Oc1ccn(C(CC(C)C)C(=O)Nc2ccn(C)n2)c(=O)c1` (stereo not drawn) [Example 12, 2-[4-(3-Chloro-2-methyl-phenoxy)-2-oxo-2H-pyridin-1-yl]-4-methyl-pentanoic acid (1-methyl-1H-pyrazol-3-yl)-amide] was 9.0 µM.
The value for `CC(C)CC(C(=O)Nc1ccn(C)n1)n1ccc(Oc2cc(F)ccc2F)cc1=O` (stereo not drawn) [Example 13, 2-[4-(2,5-Difluoro-phenoxy)-2-oxo-2H-pyridin-1-yl]-4-methyl-pentanoic acid (1-methyl-1H-pyrazol-3-yl)-amide] was 16.6 µM.
The result for `CC(C)CC(C(=O)Nc1ccn(C)n1)n1ccc(Oc2cccc3ccccc23)cc1=O` (stereo not drawn) [Example 14, 4-Methyl-2-[4-(naphthalen-1-yloxy)-2-oxo-2H-pyridin-1-yl]-pentanoic acid (1-methyl-1H-pyrazol-3-yl)-amide] reads 2.6 µM.
`CC(C)CC(C(=O)Nc1ccn(C)n1)n1ccc(Oc2ccccc2Cl)cc1=O` (stereo not drawn) [Example 15, 2-[4-(2-Chloro-phenoxy)-2-oxo-2H-pyridin-1-yl]-4-methyl-pentanoic acid (1-methyl-1H-pyrazol-3-yl)-amide]: the SC1.5 average worked out at 6.2 µM.
The value for `CC(C)CC(C(=O)Nc1ccn(C)n1)n1ccc(Oc2ccccc2OC(F)(F)F)cc1=O` (stereo not drawn) [Example 16, 4-Methyl-2-[2-oxo-4-(2-trifluoromethoxy-phenoxy)-2H-pyridin-1-yl]pentanoic acid (1-methyl-1H-pyrazol-3-yl)-amide] was 8.8 µM; that for `CC(C)CC(C(=O)Nc1ccn(C)n1)n1ccc(Oc2ccccc2F)cc1=O` (stereo not drawn) [Example 17, 2-[4-(2-Fluoro-phenoxy)-2-oxo-2H-pyridin-1-yl]-4-methyl-pentanoic acid (1-methyl-1H-pyrazol-3-yl)-amide] was 8.4 µM; that for `COc1ccccc1Oc1ccn(C(CC(C)C)C(=O)Nc2ccn(C)n2)c(=O)c1` (stereo not drawn) [Example 18, 2-[4-(2-Methoxy-phenoxy)-2-oxo-2H-pyridin-1-yl]-4-methyl-pentanoic acid (1-methyl-1H-pyrazol-3-yl)-amide] was 8.1 µM.
